In one assay the target is RON (Homo sapiens, UniProt Q04912). In words: Inhibitory activity against RON, TR-FRET kinase assay. It counts as biochemical. Particulars: RON enzyme. As for the experimental part:
In order to measure the inhibitory activity of each of the compounds of Examples against RON, the IC50 of each of the compounds was measured using a Time-Resolved Fluorescence Energy Transfer Chemistry (TR-FRET).
Specifically, the compound was prepared to a concentration of 1 mM with 100% DMSO and was diluted 10 times in a stepwise manner through 3-fold dilution. 2 ul of the compound diluted in a stepwise manner was added to a 96-well-plate containing 48 ul of a 1× kinase reaction buffer (50 mM HEPES (pH 7.4), 0.01% Tween-20, 5 mM DTT, 0.5 mM Na3VO4, 2 mM EGTA, 10 mM MgCl2).
The RON protein was diluted to a concentration of 49.3 nM with an RON storage buffer (50 mM Tris-HCl (pH 7.5), 150 mM NaCl, 0.5 mM EDTA, 0.02% Triton X-100), and then diluted again to a concentration of 0.4 nM with a 1× kinase reaction buffer. As a substrate cocktail, a RON-specific substrate mixture (40 uM ULight-labeled Poly GT, 100 nM ATP) at a concentration 2 times the final reaction concentration.
Thereafter, a 384-well-plate was prepared, and 2.5 ul of each of the diluted compounds of Examples was added to a corresponding well of experimental group wells, and 2.5 ul of a 4% DMSO solution was dispensed into high control wells and low control wells.
(§1) Thereafter, 2.5 μL of 0.4 nM RON was dispensed into the high control wells and the experimental group wells, and 2.5 μL of a 1× kinase reaction buffer was added to the low control wells, and the RON and the reaction buffer were centrifuged at room temperature for 40 seconds at 1000 RPM, and then incubated at room temperature for 20 to 30 minutes. Then, 5 μL of a substrate cocktail (2×) was dispensed into all wells, centrifuged at room temperature for 40 seconds at 1000 RPM, and then incubated at room temperature for 60 minutes. Thereafter, 5 μL of 30 mM EDTA was added to all wells to terminate the reaction, and then incubated again at room temperature for 5 minutes. Thereafter, 5 μL of a 4× phosphotyrosine antibody (Perkin Elmer) containing europium was added to all wells, and then incubated at room temperature for 60 minutes. After the incubation, the 384-well-plate was read with a Vison plate reader. At this time, the excitation wavelength was 340 nm, and the emission wavelength was 620 nm and 665 nm. The IC50 value of the compound of each Example was derived using the GraphPd Prism7 program.

The target of the next assay is cMET (Homo sapiens, UniProt P08581). In words: Inhibitory activity against MET (cMET), TR-FRET kinase assay. The assay is classed as biochemical. Particulars: cMET enzyme. As for the experimental part:
In addition, in order to measure the enzyme activity inhibition for cMET, the evaluation was performed in the same manner as the enzyme activity inhibition measurement experiment for the RON.
Specifically, the compound was prepared to a concentration of 1 mM with 100% DMSO and was diluted 10 times in a stepwise manner through 3-fold dilution. 2 ul of the compound diluted in a stepwise manner was added to a 96-well-plate containing 48 ul of a 1× kinase reaction buffer (50 mM HEPES (pH 7.4), 0.05% BSA, 0.005% Tween-20, 1 mM DTT, 0.5 mM MnCl2, 20 mM MgCl2).
The cMET protein was diluted to a concentration of 263 nM with a cMET storage buffer (50 mM Tris-HCl (pH 7.5), 150 mM NaCl, 0.05% Brij35, 1 mM DTT, 10% Glycerol), and then diluted again to a concentration of 2 nM with a 1× kinase reaction buffer. As a substrate cocktail, a MET-specific substrate mixture (5 uM TK peptide, […]) at a concentration 2 times the final reaction concentration.
Thereafter, a 384-well-plate was prepared, and 2.5 μl of each of the diluted compounds of Examples was added to a corresponding well of experimental group wells, and 2.5 μl of a 4% DMSO solution was dispensed into high control wells and low control wells.
as §1, with “of 2” for “of 0.4”, “nM cMET” for “nM RON”, “of 90” for “of 30”
(In general: TR-FRET usually uses a lanthanide donor and a delayed reading to cut background.)

RON, sequence (Q04912 25-1400, species assumed): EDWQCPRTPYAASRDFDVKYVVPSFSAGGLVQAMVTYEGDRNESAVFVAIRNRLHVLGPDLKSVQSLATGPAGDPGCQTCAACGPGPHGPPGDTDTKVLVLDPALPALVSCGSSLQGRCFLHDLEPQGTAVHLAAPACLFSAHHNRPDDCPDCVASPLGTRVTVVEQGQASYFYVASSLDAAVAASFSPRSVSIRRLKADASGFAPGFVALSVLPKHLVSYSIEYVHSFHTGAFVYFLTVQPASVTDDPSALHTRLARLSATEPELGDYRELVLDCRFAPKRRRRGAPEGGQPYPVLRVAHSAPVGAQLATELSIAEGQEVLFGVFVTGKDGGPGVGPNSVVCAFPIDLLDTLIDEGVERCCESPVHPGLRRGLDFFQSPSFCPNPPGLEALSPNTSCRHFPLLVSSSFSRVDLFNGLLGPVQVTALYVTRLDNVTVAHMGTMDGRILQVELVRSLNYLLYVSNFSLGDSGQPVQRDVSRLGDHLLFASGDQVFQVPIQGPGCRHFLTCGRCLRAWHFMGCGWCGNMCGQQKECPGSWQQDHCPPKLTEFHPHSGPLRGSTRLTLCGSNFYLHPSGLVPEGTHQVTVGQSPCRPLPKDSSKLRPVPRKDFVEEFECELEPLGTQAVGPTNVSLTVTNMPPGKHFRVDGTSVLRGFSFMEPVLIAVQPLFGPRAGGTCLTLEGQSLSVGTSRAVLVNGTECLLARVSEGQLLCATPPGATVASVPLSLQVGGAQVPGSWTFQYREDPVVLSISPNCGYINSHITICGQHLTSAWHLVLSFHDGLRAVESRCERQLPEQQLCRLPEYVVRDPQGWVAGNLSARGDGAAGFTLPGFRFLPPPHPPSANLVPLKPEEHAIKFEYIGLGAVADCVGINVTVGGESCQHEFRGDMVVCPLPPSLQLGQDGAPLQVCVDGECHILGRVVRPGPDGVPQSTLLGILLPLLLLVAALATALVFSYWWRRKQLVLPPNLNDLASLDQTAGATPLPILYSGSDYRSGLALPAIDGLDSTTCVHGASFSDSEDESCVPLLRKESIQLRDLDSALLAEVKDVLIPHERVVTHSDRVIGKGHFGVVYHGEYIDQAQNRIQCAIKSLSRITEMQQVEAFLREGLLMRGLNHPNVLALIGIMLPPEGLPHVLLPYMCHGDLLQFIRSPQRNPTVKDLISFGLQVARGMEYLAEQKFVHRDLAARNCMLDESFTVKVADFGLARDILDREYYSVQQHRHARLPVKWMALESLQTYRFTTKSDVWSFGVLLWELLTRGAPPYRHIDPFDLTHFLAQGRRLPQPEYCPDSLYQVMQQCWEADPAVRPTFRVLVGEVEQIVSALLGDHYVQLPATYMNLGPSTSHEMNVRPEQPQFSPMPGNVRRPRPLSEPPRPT
cMET, sequence (P08581 25-1390): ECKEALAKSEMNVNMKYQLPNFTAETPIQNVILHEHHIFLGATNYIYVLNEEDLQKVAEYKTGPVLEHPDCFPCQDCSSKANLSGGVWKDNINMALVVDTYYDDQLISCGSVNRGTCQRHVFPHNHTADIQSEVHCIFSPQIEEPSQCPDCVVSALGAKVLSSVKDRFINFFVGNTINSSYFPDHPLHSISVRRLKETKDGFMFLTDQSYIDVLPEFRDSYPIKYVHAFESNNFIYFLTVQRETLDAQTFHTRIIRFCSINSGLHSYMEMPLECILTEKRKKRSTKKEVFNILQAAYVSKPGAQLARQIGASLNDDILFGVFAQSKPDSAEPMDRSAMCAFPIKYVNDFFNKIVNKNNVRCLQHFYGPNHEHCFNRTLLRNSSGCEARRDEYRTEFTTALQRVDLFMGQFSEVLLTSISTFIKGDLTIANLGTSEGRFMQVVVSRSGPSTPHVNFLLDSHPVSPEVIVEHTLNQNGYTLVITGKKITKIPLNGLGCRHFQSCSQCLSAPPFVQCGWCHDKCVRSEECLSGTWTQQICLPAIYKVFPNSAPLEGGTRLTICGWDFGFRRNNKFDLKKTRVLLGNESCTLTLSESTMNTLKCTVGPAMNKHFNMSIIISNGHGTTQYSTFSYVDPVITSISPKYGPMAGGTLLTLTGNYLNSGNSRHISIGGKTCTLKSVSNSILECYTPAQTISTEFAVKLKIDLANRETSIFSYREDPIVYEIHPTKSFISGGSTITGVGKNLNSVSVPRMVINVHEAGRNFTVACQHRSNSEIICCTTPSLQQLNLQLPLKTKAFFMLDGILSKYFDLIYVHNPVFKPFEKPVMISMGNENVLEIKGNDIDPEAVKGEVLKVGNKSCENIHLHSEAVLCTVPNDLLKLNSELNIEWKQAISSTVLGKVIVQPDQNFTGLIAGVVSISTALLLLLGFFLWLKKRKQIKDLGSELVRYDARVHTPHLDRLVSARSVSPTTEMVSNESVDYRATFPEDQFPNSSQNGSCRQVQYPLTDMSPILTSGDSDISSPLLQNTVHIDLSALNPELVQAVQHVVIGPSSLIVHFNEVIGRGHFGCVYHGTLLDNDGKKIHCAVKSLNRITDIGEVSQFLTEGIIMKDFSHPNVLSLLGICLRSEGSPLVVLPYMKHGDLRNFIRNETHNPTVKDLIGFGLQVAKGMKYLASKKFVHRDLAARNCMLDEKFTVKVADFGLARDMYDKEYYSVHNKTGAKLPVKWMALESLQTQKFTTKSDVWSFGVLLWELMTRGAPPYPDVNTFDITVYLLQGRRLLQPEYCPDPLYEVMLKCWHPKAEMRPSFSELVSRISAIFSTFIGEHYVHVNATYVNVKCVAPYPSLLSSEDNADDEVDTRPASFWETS

Regarding `O=C(Nc1ccc(Oc2ccnc3[nH]c(=O)n(C4CCOCC4)c23)c(F)c1)c1ncn(-c2ccccc2)c1C(F)(F)F` [Example 11, N-(3-fluoro-4-((2-oxo-1-(tetrahydro-2H-pyran-4-yl)-2,3-dihydro-1H-imidazo[4,5-b]pyridine-7-yl)oxy)phenyl)-1-phenyl-5-(trifluoromethyl)-1H-imidazole-4-carboxamide], the figures for the IC50 against RON and on cMET were under 50 nM and over 5000 nM, respectively.

Take `Cc1nn(-c2ccccc2)c(C)c1C(=O)Nc1ccc(Oc2ccnc3[nH]c(=O)[nH]c23)c(F)c1` [Example 12, N-(3-fluoro-4-((2-oxo-2,3-dihydro-1H-imidazo[4,5-b]pyridine-7-yl)oxy)phenyl)-3,5-dimethyl-1-phenyl-1H-pyrazole-4-carboxamide]: the IC50 against RON is 50 to 500 nM; against cMET, over 5000 nM.

Regarding `Cc1nn(-c2ccccc2)c(C)c1C(=O)Nc1ccc(Oc2ccnc3[nH]c(=O)n(C(C)C)c23)c(F)c1` [Example 13, N-(3-fluoro-4-((1-isopropyl-2-oxo-2,3-dihydro-1H-imidazo[4,5-b]pyridine-7-yl)oxy)phenyl)-3,5-dimethyl-1-phenyl-1H-pyrazole-4-carboxamide], the IC50 was under 50 nM against RON and 50 to 500 nM at cMET.

In the case of `Cc1c(C(=O)Nc2ccc(Oc3ccnc4[nH]c(=O)n(C(C)C)c34)c(F)c2)cnn1-c1ccccc1` [Example 14, N-(3-fluoro-4-((1-isopropyl-2-oxo-2,3-dihydro-1H-imidazo[4,5-b]pyridine-7-yl)oxy)phenyl)-5-methyl-1-phenyl-1H-pyrazole-4-carboxamide], the IC50 is under 50 nM against RON and 500 to 5000 nM against cMET.

As for `CC(C)n1c(=O)[nH]c2nccc(Oc3ccc(NC(=O)c4cnc(-c5ccccc5)s4)cc3F)c21` [Example 15, N-(3-fluoro-4-((1-isopropyl-2-oxo-2,3-dihydro-1H-imidazo[4,5-b]pyridine-7-yl)oxy)phenyl)-2-phenylthiazole-5-carboxamide], the figures for the IC50 against RON and on cMET were 50 to 500 nM and over 5000 nM, respectively.

On to `CC(C)n1c(=O)[nH]c2nccc(Oc3ccc(NC(=O)c4ncc(-c5ccccc5)s4)cc3F)c21` [Example 16, N-(3-fluoro-4-((1-isopropyl-2-oxo-2,3-dihydro-1H-imidazo[4,5-b]pyridine-7-yl)oxy)phenyl)-5-phenylthiazole-2-carboxamide], for which the IC50 at RON is 50 to 500 nM; on cMET, over 5000 nM.

In the case of `Cc1ccc(-n2ncc(C(=O)Nc3ccc(Oc4ccnc5[nH]c(=O)n(C(C)C)c45)c(F)c3)c2C(F)(F)F)cc1` [Example 17, N-(3-fluoro-4-((1-isopropyl-2-oxo-2,3-dihydro-1H-imidazo[4,5-b]pyridine-7-yl)oxy)phenyl)-1-(p-tolyl)-5-(trifluoromethyl)-1H-pyrazole-4-carboxamide], the values for the IC50 against RON and against cMET were 50 to 500 nM and over 5000 nM, respectively.

As for `COc1ccccc1-n1ncc(C(=O)Nc2ccc(Oc3ccnc4[nH]c(=O)n(C(C)C)c34)c(F)c2)c1C(F)(F)F` [Example 18, N-(3-fluoro-4-((1-isopropyl-2-oxo-2,3-dihydro-1H-imidazo[4,5-b]pyridine-7-yl)oxy)phenyl)-1-(2-methoxyphenyl)-5-(trifluoromethyl)-1H-pyrazole-4-carboxamide], the values for the IC50 at RON and against cMET were 50 to 500 nM and 500 to 5000 nM, respectively.

As to `CC(C)n1c(=O)[nH]c2nccc(Oc3ccc(NC(=O)c4cnn(-c5ccccc5)c4-c4ccccc4)cc3F)c21` [Example 19, N-(3-fluoro-4-((1-isopropyl-2-oxo-2,3-dihydro-1H-imidazo[4,5-b]pyridine-7-yl)oxy)phenyl)-1,5-diphenyl-1H-pyrazole-4-carboxamide], the IC50 against RON and on cMET was 50 to 500 nM each time.

With `CC(C)n1c(=O)[nH]c2nccc(Oc3ccc(NC(=O)c4cnn(C5CCCOC5)c4C(F)(F)F)cc3F)c21` (stereo not shown) [Example 20, N-(3-fluoro-4-((1-isopropyl-2-oxo-2,3-dihydro-1H-imidazo[4,5-b]pyridine-7-yl)oxy)phenyl)-1-(tetrahydro-2H-pyran-3-yl)-5-(trifluoromethyl)-1H-pyrazole-4-carboxamide], the concentration for half-maximal inhibition (IC50) is under 50 nM at RON and 500 to 5000 nM at cMET.

Take `O=C(Nc1ccc(Oc2ccnc3[nH]c(=O)n(C4CCCC4)c23)c(F)c1)c1ncn(-c2ccccc2)c1C(F)(F)F` [Example 21, N-(4-((1-cyclopentyl-2-oxo-2,3-dihydro-1H-imidazo[4,5-b]pyridine-7-yl)oxy)-3-fluorophenyl)-1-phenyl-5-(trifluoromethyl)-1H-imidazole-4-carboxamide]: the IC50 against RON is under 50 nM; against cMET it was 500 to 5000 nM.

`O=C(Nc1ccc(Oc2ccnc3[nH]c(=O)n(C4CCCC4)c23)c(F)c1)c1cnn(-c2ccccc2)c1C(F)(F)F` [Example 22, N-(4-((1-cyclopentyl-2-oxo-2,3-dihydro-1H-imidazo[4,5-b]pyridine-7-yl)oxy)-3-fluorophenyl)-1-phenyl-5-(trifluoromethyl)-1H-pyrazole-4-carboxamide]: the results for the IC50 on RON and against cMET were under 50 nM and 500 to 5000 nM, respectively.

With `CCc1c(C(=O)Nc2ccc(Oc3ccnc4[nH]c(=O)n(C5CCCC5)c34)c(F)c2)cnn1-c1ccccc1` [Example 23, N-(4-((1-cyclopentyl-2-oxo-2,3-dihydro-1H-imidazo[4,5-b]pyridine-7-yl)oxy)-3-fluorophenyl)-5-ethyl-1-phenyl-1H-pyrazole-4-carboxamide], the figures for the IC50 on RON and against cMET were 50 to 500 nM and 500 to 5000 nM, respectively.

`CC(C)n1c(=O)[nH]c2nccc(Oc3ccc(NC(=O)c4ccccc4C(F)(F)F)cc3F)c21` [Example 24, N-(3-fluoro-4-((1-isopropyl-2-oxo-2,3-dihydro-1H-imidazo[4,5-b]pyridine-7-yl)oxy)phenyl)-2-(trifluoromethyl)benzamide]: the IC50 against RON and on cMET was 500 to 5000 nM throughout.

Regarding `CC(C)n1c(=O)[nH]c2nccc(Oc3ccc(NC(=O)c4ccc(Br)cc4C(F)(F)F)cc3F)c21` [Example 25, 4-bromo-N-(3-fluoro-4-((1-isopropyl-2-oxo-2,3-dihydro-1H-imidazo[4,5-b]pyridine-7-yl)oxy)phenyl)-2-(trifluoromethyl)benzamide], the IC50 is 50 to 500 nM on RON and over 5000 nM against cMET.

Regarding `CC(C)n1c(=O)[nH]c2nccc(Oc3ccc(NC(=O)c4cnn(-c5cccc6ccccc56)c4C(F)(F)F)cc3F)c21` [Example 26, N-(3-fluoro-4-((1-isopropyl-2-oxo-2,3-dihydro-1H-imidazo[4,5-b]pyridine-7-yl)oxy)phenyl)-1-(naphthalene-1-yl)-5-(trifluoromethyl)-1H-pyrazole-4-carboxamide], the IC50 lay within 50 to 500 nM against RON and 500 to 5000 nM against cMET.

As for `CC(C)n1c(=O)[nH]c2nccc(Oc3ccc(NC(=O)c4cccc(Br)c4C(F)(F)F)cc3F)c21` [Example 27, 3-bromo-N-(3-fluoro-4-((1-isopropyl-2-oxo-2,3-dihydro-1H-imidazo[4,5-b]pyridine-7-yl)oxy)phenyl)-2-(trifluoromethyl)benzamide], the IC50 was 500 to 5000 nM at RON and over 5000 nM on cMET.

Broadly, the IC50 is the concentration at which inhibition is half-maximal. The low end stands for greater potency, the high end for weaker potency.
